Read-outs that look alike come from different tables or passages of the source. One block for each compound: values may come before it.
Legend:
HEY ovarian cancer cells [1] = assay: Ca2+ responses in HEY ovarian cancer cells; type: cell-based; conditions: 100 nM LPA 18:1 mixed with 1 μM lipid
Source text: Likewise, PA 8:0 inhibited the Ca^2+ response to 6% of control, whereas PA 18:1 had no effect. HEY express mRNA transcripts for Edg-1, -2, -5, -7 receptors (FIG. 34C).

human Edg-2 = target: T1, human Edg-2 (Homo sapiens, UniProt Q92633); assay: Ca2+ responses (Fura-2) in RH7777 cells expressing Edg-2; type: cell-based
T1 construct: expressed in transfected cells
T1 sequence (Q92633 whole entry): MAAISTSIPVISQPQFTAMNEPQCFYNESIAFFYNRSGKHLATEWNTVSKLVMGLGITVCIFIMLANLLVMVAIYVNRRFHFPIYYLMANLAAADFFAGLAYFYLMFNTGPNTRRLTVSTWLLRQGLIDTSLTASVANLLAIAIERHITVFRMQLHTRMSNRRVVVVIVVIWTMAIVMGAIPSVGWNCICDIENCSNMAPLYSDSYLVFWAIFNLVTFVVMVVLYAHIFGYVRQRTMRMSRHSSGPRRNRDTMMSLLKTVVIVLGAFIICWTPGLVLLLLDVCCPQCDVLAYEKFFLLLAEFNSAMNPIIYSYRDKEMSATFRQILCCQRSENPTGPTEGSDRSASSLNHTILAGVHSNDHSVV
Experimental: (§1) RH7777 cells were transfected with the cDNA constructs encoding human Edg-2, Edg-4, or Edg-7 and then were subcloned into the pCDNA3 expression vector using the Cytofectene transfection reagent according to the manufacturers' protocol. Transfected cells were selected in DMEM containing 10% FBS and 1 mg/ml geneticin. Resistant cells were collected and subcloned by limiting dilution. The resulting clones were then screened using functional assays and RT-PCR analysis. Data are representative of three individual clones.

NIH3T3 cells = assay: LPA-elicited proliferation of NIH3T3 cells (cell counting); type: cell-based; conditions: 5 μM LPA 18:1 mixed with 10 μM lipid, 24 hr
Experimental: Proliferation of NIH3T3 cells was assessed by direct cell counting as previously described (Tigyi et al., 1999). NIH3T3 cells were plated in 24-well plates at a density of 10,000 cells/well, in DMEM containing 10% FBS. The following day, the cells were rinsed and serum starved in DMEM for 6 hr. Lipids were then added for 24 hr. Cell numbers were determined by counting in a Coulter counter (Coulter Electronics, Hialeah, Fla.).

human Edg-7 = target: T2, human Edg-7 (Homo sapiens, UniProt Q9UBY5); assay: Ca2+ responses (Fura-2) in RH7777 cells expressing Edg-7; type: cell-based
T2 construct: Flag; expressed in transfected cells
T2 sequence (Q9UBY5 1-353): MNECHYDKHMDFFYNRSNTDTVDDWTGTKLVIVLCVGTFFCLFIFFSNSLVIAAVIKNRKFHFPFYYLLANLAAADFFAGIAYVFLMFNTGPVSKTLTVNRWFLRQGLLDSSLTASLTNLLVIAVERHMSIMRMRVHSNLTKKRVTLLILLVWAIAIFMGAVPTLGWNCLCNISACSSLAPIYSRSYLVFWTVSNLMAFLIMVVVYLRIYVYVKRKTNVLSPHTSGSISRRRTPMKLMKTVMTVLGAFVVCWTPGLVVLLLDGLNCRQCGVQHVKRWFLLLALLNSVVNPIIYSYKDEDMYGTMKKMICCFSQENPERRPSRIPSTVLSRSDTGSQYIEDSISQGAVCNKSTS
Experimental: as §1

[2] = tested on: PC-3 prostate cancer cell line; assay: Cytotoxicity / growth inhibition (SRB), PC-3; type: cell-based; conditions: 96 hours drug exposure, read-out: IC50 ± SEM, PC-3
Experimental: (§2) Cells were removed from stock flasks using trypsin, centrifuged, resuspended in fresh media, and plated at a density of approximately 2,000 cells/well in 96-well culture plates. Final drug concentrations ranged from 0.05 to either 10 or 50 μM. Control experiments with no drug added (negative control) and 5-fluorouracil added (positive control) were performed in parallel. Media was removed and replaced at 48 hours to minimize the effects of drug degradation during the course of the experiment. After 96 hours drug exposure, cells were fixed by the addition of cold 50% trichloroacetic acid (TCA) and incubation at 4° C. for 1 hour. Fixed cells were stained with sulforhodamine B (SRB), and cell number was determined by comparison of absorbance at 540 nm, as compared to a standard curve of cell number versus absorbance. Experiments were performed in duplicate.

PSP24 PLGFR = PSP24 PLGFR (Xenopus laevis, UniProt P79945); assay: Xenopus oocyte assay: LPA-induced oscillatory chloride currents (two-electrode voltage clamp); type: cell-based; conditions: for inhibition of LPA-induced chloride currents: Xenopus oocytes, extracellular application
PSP24 PLGFR, sequence (P79945 whole entry): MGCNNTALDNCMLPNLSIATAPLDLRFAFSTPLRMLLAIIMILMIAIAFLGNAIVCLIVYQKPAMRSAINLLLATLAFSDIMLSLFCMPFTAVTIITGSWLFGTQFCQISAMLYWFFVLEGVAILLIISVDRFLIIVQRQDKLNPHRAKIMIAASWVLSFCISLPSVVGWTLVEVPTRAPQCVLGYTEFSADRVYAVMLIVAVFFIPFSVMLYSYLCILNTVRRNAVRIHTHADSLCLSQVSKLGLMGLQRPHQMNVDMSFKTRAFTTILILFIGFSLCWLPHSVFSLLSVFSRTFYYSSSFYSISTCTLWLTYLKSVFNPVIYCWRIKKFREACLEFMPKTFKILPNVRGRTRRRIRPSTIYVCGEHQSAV
Experimental: Xenopus oocytes which endogenously express PSP24 PLGFR were used to screen the newly designed and synthesized compounds for their LPA inhibitory activity.
(§3) Oocytes were obtained from xylazine-anesthetized adult Xenopus laevis frogs (Carolina Scientific, Burlington, N.C.) under aseptic conditions and prepared for experiment. […] Oocytes were kept in Barth's solution in an incubator between 17-20° C. and were used for 2-7 days after isolation.
(§4) Electrophysiological recordings were carried out using a standard two-electrode voltage-clamp amplifier holding the membrane potential at −60 mV (GeneClamp 500, Axon Instruments, Calif.). […] Membrane currents were recorded with a NIC-310 digital oscilloscope (Nicolet, Madison, Wis.). Applications were made at intervals of 15 mins (minimum) to allow for the appropriate washout and recovery from desensitization.
as §3
as §4, with “CA).” for “Calif.).”

human Edg-4 = target: T3, human Edg-4 (Homo sapiens, UniProt Q9HBW0); assay: Ca2+ responses (Fura-2) in RH7777 cells expressing Edg-4 (stable or transient); type: cell-based
T3 construct: expressed in transfected cells
T3 sequence (Q9HBW0 whole entry): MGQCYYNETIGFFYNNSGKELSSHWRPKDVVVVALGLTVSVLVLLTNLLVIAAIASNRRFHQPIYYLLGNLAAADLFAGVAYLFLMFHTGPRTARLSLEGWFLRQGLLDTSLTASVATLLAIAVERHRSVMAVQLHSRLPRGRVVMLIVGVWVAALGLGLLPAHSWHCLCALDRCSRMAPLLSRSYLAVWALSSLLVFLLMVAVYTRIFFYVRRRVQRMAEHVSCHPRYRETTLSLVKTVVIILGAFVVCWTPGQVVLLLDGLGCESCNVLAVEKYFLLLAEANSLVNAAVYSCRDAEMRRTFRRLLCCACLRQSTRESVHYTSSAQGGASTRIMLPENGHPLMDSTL
Source text: RH7777 cells, stably expressing human Edg-4, were kindly provided by Dr. Kevin Lynch (University of Virginia, Charlottesville, Va.). Flag-tagged cDNA's encoding human Edg-4 and -7 inserted into the pCDNA3 expression plasmid (Invitrogen, Carlsbad, Calif.), were a generous gift from Dr. Junken Aoki (University of Tokyo, Tokyo, Japan). RH7777 and NIH3T3 cells were obtained from the American Type Culture Collection (Manassas, Va.). HEY cells were provided by Dr. Lisa Jennings (University of Tennessee, Memphis). All cell lines were maintained in Dulbecco's Modified Eagle's Medium (DMEM) containing 10% FBS and 2 mM glutamine. Oocytes were obtained from adult Xenopus laevis frogs as previously described (Tigyi et al., 1999).
as §1
RH7777 cells were plated on polylysine-coated glass coverslips (Bellco, Vineland, N.J.) one day prior to transfection. The following day, cells were transfected overnight (16-18 hr) with 1 μg of plasmid DNA mixed with 6 μl of Cytofectene. The cells were then rinsed twice with DMEM and cultured in DMEM containing 10% FBS. The next day, the cells were rinsed with DMEM and serum was withdrawn for a minimum of 2 hr prior to monitoring intracellular Ca^2+.

[3] = tested on: LNCaP prostate cancer cell line; assay: Cytotoxicity / growth inhibition (SRB), LNCaP; type: cell-based; conditions: 96 hours drug exposure, read-out: IC50 ± SEM, LNCaP
Experimental: as §2

[4] = tested on: DU-145 prostate cancer cell line; assay: Cytotoxicity / growth inhibition (SRB), DU145; type: cell-based; conditions: read-out: IC50 ± SEM, DU145
Experimental: as §2

HEY ovarian cancer cells [5] = assay: LPA-induced HEY ovarian cancer cell migration (cell motility); type: cell-based; conditions: compound 1 μM against 0.1 μM LPA
Experimental: It is known that two LPA receptors, EDG-2 and EDG-7, are expressed in HEY ovarian cancer cells, so compounds 56, 56a, and 66 were evaluated for their ablity to inhibit LPA-induced cell motility (compound conc: 1 μM against 0.1 μM LPA conc:).
HEY ovarian cells were maintained in RPMI 1640 medium with 2 mM L-glutamine (GIBCO BRL) supplemented with 10% fetal bovine serum (FBS, Hyclone). All cells were synchronized to the Go/G1 stage by growing them to confluency for 2 days. The cells were replated and harvested for experiments when cells were about 50-60% confluent on the flask. After removal of the cells from the flask, they were exposed for 5 min to 0.53 mM EDTA in PBS at 37° C. EDTA was neutralized with equal volume of RPMI 1640 plus 2 mM L-glutamine and 10% FBS. Cells were centrifuged at 800 rpm for 10 min at room temperature. Harvested cells were washed twice with RPMI 1640 with 2 mM L-glutamine medium and resuspended in the concentration of 1×10^6 cells/ml, and then rested for 1 hr at 37° C.
A modified quantitative cell migration assay (Cat. # ECM500 from Chemicon, Temecula, Calif.) was used to test cell motility. The Chemicon chamber membrane was coated with fibronectin-containing pores of 8 microns in diameter. A 400 μl RPMI/2 mM L-glutamine containing either no inhibitors or inhibitors (1 μM) were pippetted into the lower chamber. About 5×10^4 cells in RPMI 1640/2 mM L-glutamine were added to the top chamber. The 24-well plates with inserts were incubated for 4 hours in a 5% CO2 incubator at 37° C. At the end of incubation, the chambers were removed to a fresh 24-well plate, and the cells on the inside chamber were removed by a swab several times and placed in the prepared Cell Stain Solution for 30 minutes at room temperature. At the end of incubation, Cell Stain Solution was removed from the wells. The chambers were washed 3 times with 1 mL PBS per well. After the final PBS wash, the chambers were examined to confirm proper cell morphology, and adherent cells were counted using an inverted microscope.

[6] = 250 nM LPA 18:1 mixed with 10 μM lipid
[7] = 250 nM LPA 18:1 mixed with 500 nM lipid
[8] = alone, concentrations as high as 10 μM
[9] = mixture of LPA 8:0 and LPA 18:1
[10] = LPA 18:1 near the EC50 combined with compound 108
[11] = stable Edg-4, 500 nM LPA 18:1 mixed with 5 μM lipid
[12] = Homo sapiens, DU-145, 96 hours drug exposure

Compound: CCCCCCCCCCCCCCNC(=O)C(N)CO.O=C(O)C(F)(F)F (stereo not shown) [Compound 36, N-1-tetradecyl-2-amino-3-hydroxypropanamide trifluoroacetate]
melting point: 168 to 171 °C | inhibition of LPA-induced chloride currents (PSP24 PLGFR): best inhibitor among the non-phosphorylated derivatives

Compound: CCCCCCCCCCCCCCCCCCNC(=O)C(N)CO.O=C(O)C(F)(F)F (stereo not shown)
melting point: 170 to 172 °C

Compound: O=c1[nH]cc(F)c(=O)[nH]1 [Fluorouracil, 5-fluorouracil]
IC50 ([3]; Homo sapiens, LNCaP): 2.8 ± 1.6 µM | IC50 [2]: 10.2 ± 4.1 µM | IC50 [4, 12]: 6.8 ± 3.3 µM

Compound: CCCCCCCCCCCCCCNC(=O)C(COP(=O)(O)O)NC(C)=O (stereo not shown) [Compound 56a, 2-(Acetylamino)-3-oxo-3-(tetradecylamino) propyl dihydrogen phosphate]
IC50 [3]: 30.3 ± 7.9 µM | IC50 ([4]; 96 hours drug exposure): 0.7 ± 0.1 µM | effect on LPA-induced cell motility (HEY ovarian cancer cells [5]): potentiated the LPA-induced cell motility | effect on LPA response when applied in combination with LPA (PSP24 PLGFR; applied in combination with LPA): enhanced the LPA response | response elicited by compound alone at 2 μM (PSP24 PLGFR; compound alone, 2 μM): did not elicit a response | response elicited by compound alone at 10 μM (PSP24 PLGFR; compound alone, 10 μM): able to elicit a response on its own

Compound: CCCCCCCCCCCCCCNC(=O)C(CO)NC(=O)OC(C)(C)C (stereo not shown) [Compound 27, tert-Butyl N-[1-(hydroxymethyl)-2-oxo-2-(tetradecylamino)ethyl]carbamate]
melting point: 59 to 62 °C | IC50 ([3]; Homo sapiens, LNCaP): 10.9 ± 2.7 µM | IC50 [2]: > 50 µM | IC50 [4, 12]: 19.7 ± 6 µM

Compound: CCCCCCCCCCCCC/C=C/[C@@H](O)[C@@H](N)COP(=O)(O)O [SPP (13:0), sphingosine-1-phosphate]
IC50 [2]: > 50 µM | IC50 [4, 12]: > 10 µM

Further lines, with some results ahead:

inhibitory effect on LPA-elicited Ca2+ response (human Edg-2; [6]): no longer had an inhibitory effect | effect on LPA-elicited Ca2+ responses (human Edg-7; [7]): no longer inhibitors of Edg-7
Compound: CCCCCCCC(=O)OC[C@H](COP(=O)(O)OP(=O)(O)O)OC(=O)CCCCCCC [DGPP 18:1, diacylglycerol pyrophosphate]
effect on LPA-elicited Ca2+ response (HEY ovarian cancer cells [1]): had no effect | effect on LPA-induced proliferation (NIH3T3 cells): Neither DGPP 18:1, nor long- and short-chain PA and DAG had an effect

EC50 (human Edg-2; stable Edg-2 expressing cells, read-out: EC50, Ca2+ transients): 0.378 ± 0.053 µM | EC50 (PSP24 PLGFR; LPA alone, FIG. 37, read-out: EC50 of LPA alone (positive control solution)): 0.025 µM
Compound: lysophosphatidic acid [LPA (18:1)]
IC50 [2]: 28.5 ± 6.3 µM

Ca2+ response elicited alone (human Edg-2; [8]): unable to elicit Ca^2+ responses | effect of mixture with LPA 18:1 on Ca2+ responses (human Edg-2; [9]): not effected | effect on LPA-elicited Ca2+ responses (human Edg-7; [7]): had no effect | Ca2+ response elicited alone (human Edg-7; [8]): unable to elicit Ca^2+ responses | effect of mixture with LPA 18:1 on Ca2+ responses (human Edg-7; [9]): not effected | Ca2+ response elicited alone (human Edg-4; [8]): unable to elicit Ca^2+ responses | effect of mixture with LPA 18:1 on Ca2+ responses (human Edg-4; mixture of LPA 8:0 and LPA 18:1, stable cells): not effected
Compound: lysophosphatidic acid [LPA 8:0]

Ca2+ responses, % of control (human Edg-2; [10]): about 63 % of control | Ca2+ responses, % of control (human Edg-7; [10]): ~56 % of control | Ca2+ responses, % of control (human Edg-4; [10]): about 148 % of control
Compound: CCCCCCCCCCCCOP(=O)(O)O [Compound 108, Phosphoric Acid Monododecyl Ester]

decrease of the Ca2+ response (human Edg-2; [6]): 18% | effect on LPA-elicited Ca2+ responses (human Edg-7; [7]): no longer inhibitors of Edg-7 | Ca2+ responses, % of control (human Edg-4; [11]): 137 % of control
Compound: Phosphatidic acid [PA 18:1]
effect on LPA-elicited Ca2+ response (HEY ovarian cancer cells [1]): had no effect

Ca2+ response, % of control (human Edg-2; [6]): 19 % of control | inhibition of the Ca2+ responses (human Edg-7; [7]): 56% | Ca2+ responses, % of control (human Edg-4; [11]): 162 % of control
Compound: Phosphatidic acid [PA 8:0]
LPA-elicited Ca2+ response, % of control (HEY ovarian cancer cells [1]): 6 % of control | effect on LPA-induced proliferation (NIH3T3 cells): had no significant inhibition | inhibition of LPA-induced chloride currents (PSP24 PLGFR): effective at inhibiting the LPA-elicited responses

melting point: 33 to 35 °C
Compound: CCCCCCCCCCCCCCNC(=O)C(COP(=O)(OCc1ccccc1)OCc1ccccc1)NC(=O)OC(C)(C)C (stereo not shown) [Compound 51, tert-Butyl N-[1-{([di(benzyloxy)phosphoryl]oxy)methyl}-2-oxo-2-(tetradecylamino)ethyl]carbamate]
IC50 ([3]; Homo sapiens, LNCaP): 19.9 ± 6.4 µM | IC50 [2]: 25.4 ± 3.6 µM | IC50 [4, 12]: 8.1 ± 1.3 µM
